Legend:
[1] = tested on: haemagglutination between sheep erythrocytes and S. saprophyticus bacteria (Mc 2 and Mc 194); experiment: Inhibition of haemagglutination of sheep erythrocytes with Staphylococcus saprophyticus; format: cell-based; conditions: for minimal effective concentration: Staphylococcus saprophyticus, Erythrocyte, read-out: Minimum inhibitory con.
Procedure: In the tests the bacteria S. saprophyticus strains, both isolated from urine from patents having urinary tract infection, were used. The bacteria were cultivated in tryptone broth over night, pelletized by means of centrifugation and washed twice with PBS, pH 7.2. Haemagglutination was performed using erythrocytes from sheep obtained from sheep blood and washed twice with 0.85 % saline.
In the haemagglutination-indication experiments microtitre plates (Limbo Sc. Comp. Inc) were used. 25 μl of bacterial suspension were titrated in PBS by two-step titre steps, 25 μl of 1% erythrocyte suspension being then added. The haemagglutination titre was determined after incubation of the plates for 2-4 hours in room temperature.
In the inhibition experiments serial dilutions of the relevant inhibitor (50 μl/well) and 25 μl of bacterial suspension diluted to contain 2 HU haemagglutinating units of bacteria were used. The plates were incubated for 30 minutes at 37° C., 25 μl of the erythrocyte suspension being then added to each well.

[2] = tested on: NK-cells activity (lymphocytes) against K-562 cells; experiment: Inhibition of NK-cells activity (chromium release cytotoxicity of lymphocytes against K-562); format: cell-based, human; conditions: for % specific cytotoxicity: ratio 20:1; for cytolytic effect after preincubation with the oligosaccharides: in concentrations down to 0.3 mg/ml
Procedure: Lymphocytes isolated from peripheral blood drained from normal donors have the ability of exerting a cytotoxic, (i.e. cell killing activity against certain types of cells in culture. In the instant example there is used a human leukemia cell line called K-562 as a target cell for such cytolytic activity.
Method: K-562 cells intracellularly labelled with radioactive chromium are incubated with effector cells (lymphocytes) for 4 hours at 37° C. The cytotoxic effect is measured as the quantity of isotope released in relation to remaining isotope in the target cells. For details see Malmstrom, P., Jonsson, Å, and Sjogren, H.O. "Countercurrent distribution of lymphocytes from human peripheral blood in an aqueous two-phase system. II. Separation into subsets of lymphocytes with distinctive functions". Cell Immunol. 53:51-64, 1980. For studying inhibiting substances effector cells (6×10^6 cells/ml) are preincubated with the respective oligosaccharides diluted in cultivating medium for half an hour at 37° C. After washing with centrifugation the effector cells are transferred directly to the target cells.

[3] = tested on: haemagglutination between GRBC and Bordetella pertussis bacteria or fimbriae thereof; experiment: Inhibition of haemagglutination of goose erythrocytes (GRBC) with Bordetella pertussis; format: cell-based; conditions: for minimal effective concentration: Bordetella pertussis, Erythrocyte, 4 h, read-out: Minimum inhibitory concentration
Procedure: In the tests bacteria of the type Bordetella pertussis newly sampled from an individual suffering from whooping cough were used. The bacteria were cultivated on CFA-agar at +37° C. for 18 hours. The bacterial growth was slurried in PBS, pH 7.2 to a density of 1×10^10 bacteria/ml. Fimbriae from the bacterium were obtained in the following manner:
The bacteria were cultivated on Roux flasks with CFA-agar. After incubation at +37° for 24 hours the bacteria were harvested by adding 10 ml PBS/flask and sterile glass balls. The flasks were shaken and the bacterial suspension removed. The bacteria were pelletized by centrifugation (3000×g, +4°, 30 min.). The supernatant was removed by suction. The bacteria were resuspended in 10 ml PBS and the suspension was treated in a Waring blendor 2 x 20 seconds. The suspension was centrifuged (5000×g, +4°, 30 min.) to pelletize the bacteria. The supernatant containing fimbriae was removed by suction. The bacterial pellet is resuspended, treated in a Waring blender and after centrifugation the supernatant is again recovered. The two supernatants are pooled and ammonium sulphate is added to a concentration of 30 %. After stirring the supernatants are allowed to stand at +4° C. for 18 hours, centrifugation then taking place at 5000 ×g. The supernatant was separated and the precipitation was dialyzed against PBS. The solubilized fimbriae fraction was precipitated with ammonium sulphate once more and dialyzed.
Haemagglutination is performed using erythrocytes from geese (GRBC) suspended to a concentration of 3% v/w in PBS. The agglutination tests were carried out so that 50 μl GRBC were mixed with 2-step dilution of antigen 50 μl bacterial suspension or 50 μl fimbriae suspension and 50 μl PBS in microtitre plates. The plates were sealed with Parafilm and incubated at […] for 4 hours and were then recorded. The last well wherein agglutination could be read by the eye is considered as 1 haemagglutinating unit (1 HU).
In the inhibition experiments there were added instead of PBS 50 μl of an oligosaccharide solution, the inhibiting capacity was studied. […]

[4] = tested on: adhesion of S. saprophyticus to urinary epithelial cells; experiment: Inhibition of adherence of S. saprophyticus to urinary epithelial cells; format: cell-based, Staphylococcus saprophyticus; conditions: for inhibition at 5000 µg/mL: Staphylococcus saprophyticus, Epithelial cell, 0.75 h, read-out: reduction of the number of adhering bacteria
Procedure: Cells from urinary epithelium were suspended in cell cultivation medium RPMI 1640 (Flow Ltd) to a concentration of 10^5 cells/ml.
Microorganisms of the type S. saprophyticus were suspended in RPMI 1640 to a concentration of 10^9 bacteria/ml. Oligosaccharides which were tested for their ability of preventing adhesion of S. saprophyticus to urinary epithelial cells were dissolved in RPMI 1640 to a concentration of 5 mg/ml. In the experiments 1 ml of the oligosaccharide solution was incubated with 0.1 ml bacterial suspension at 37° C. for 30 minutes. Urinary epithelial cells were incubated with the bacterial suspension incubated in advance as described above with oligosaccharide solution for 45 minutes at 37° C. As a control there was used a bacterial suspension preincubated with 1 ml RPMI 1640.
Incubated samples were filtrated through a 12μ filter and washed 3 times with PBS. The filter was pressed against microscope slides for a few seconds, the slides being then fixed in methanol for 10 minutes. The slides were dried in air and coloured with acridine orange for 2 minutes. The slides were washed, dried in air and studies in fluorescence microscope. The number of bacteria per cell was counted. In each experiment 50 cells were counted.

S. saprophyticus = experiment: Removal of S. saprophyticus from an infected surface (disinfection); design: species or system Staphylococcus saprophyticus; conditions: 0.1 percent by weight aqueous solution, cotton pad
Procedure: A 0.1 percent by weight aqueous solution of the compound β-D-Galp-(1-4)-D-GNAc is prepared and applied by using a cotton pad on a surface infected by S. saprophyticus.

[5] = 0.3 mg/ml oligosaccharide, experiment 1 (without inhibitor 22.3)
[6] = 0.3 mg/ml oligosaccharide, experiment 2 (without inhibitor 32.0)
[7] = 1 mg/ml oligosaccharide, experiment 1 (without inhibitor 22.3)
[8] = 1 mg/ml oligosaccharide, experiment 2 (without inhibitor 32.0)
[9] = 3 mg/ml oligosaccharide, experiment 1 (without inhibitor 22.3)
[10] = 3 mg/ml oligosaccharide, experiment 2 (without inhibitor 32.0)

Row | Compound | minimal effective concentration [1] | % specific cytotoxicity [2, 5] | % specific cytotoxicity [2, 6] | % specific cytotoxicity [2, 7] | % specific cytotoxicity [2, 8] | % specific cytotoxicity [2, 9] | % specific cytotoxicity [2, 10] | cytolytic effect after preincubation with the oligosaccharides [2] | further results
1 | CC(=O)NC1C(O)CC(OC2C(O)C(CO)OC(OC3C(CO)OC(O)C(O)C3O)C2O)(C(=O)O)OC1C(O)C(O)CO (stereo not drawn) [3'siallyl-lactose, α-NeuNAcp-(2-3)-β-Galp-(1-4)-Glc, reference compound] | > 2500 µg/mL | 23.9% | 28.7% | 25.2% | 19.7% | 20.0% | 19.1% | – | –
2 | CC(=O)NC1C(O)CC(OCC2OC(OC3C(CO)OC(O)C(O)C3O)C(O)C(O)C2O)(C(=O)O)OC1C(O)C(O)CO (stereo not drawn) [6'siallyl-lactose, α-NeuNAcp-(2-6)-β-Galp-(1-4)-Glc, reference compound] | > 2500 µg/mL | 21.3% | 20.2% | 15.8% | 17.2% | 9.6% | 15.1% | – | –
3 | CC(=O)N[C@H]1[C@H](O[C@@H]2[C@@H](OC[C@H]3O[C@@H](O[C@H]4[C@H](O)[C@@H](NC(C)=O)C(O)O[C@@H]4CO)[C@@H](O)[C@@H](O[C@H]4O[C@H](CO)[C@@H](O)[C@H](O)[C@@H]4O[C@@H]4O[C@H](CO)[C@@H](O[C@@H]5O[C@H](CO)[C@H](O)[C@H](O)[C@H]5O)[C@H](O)[C@H]4NC(C)=O)[C@@H]3O)O[C@H](CO)[C@@H](O)[C@@H]2O)O[C@H](CO)[C@@H](O[C@@H]2O[C@H](CO)[C@H](O)[C@H](O)[C@H]2O)[C@@H]1O (stereo partly shown) [GM1 -octa] | 200 µg/mL | 16.1% | 28.0% | 11.3% | 25.0% | 1.7% | 12.8% | inhibited | –
4 | CC(=O)N[C@H]1[C@H](O[C@@H]2[C@@H](OC[C@H]3O[C@@H](O[C@H]4[C@H](O)[C@@H](NC(C)=O)C(O)O[C@@H]4CO)[C@@H](O)[C@@H](O)[C@@H]3O)O[C@H](CO)[C@@H](O)[C@@H]2O)O[C@H](CO)[C@@H](O[C@@H]2O[C@H](CO)[C@H](O)[C@H](O)[C@H]2O)[C@@H]1O (stereo partly drawn) [GM1 -penta, β-Galp-(1-4)-β-GNAcp-(1-2)-α-Manp-(1-6)-β-Manp-(1-4)-GNAc] | 250 µg/mL | 16.8% | 13.9% | 6.5% | 2.7% | -1.4% | 0.0% | inhibited | minimal effective concentration [3]: 675 µg/mL
5 | CC(=O)N[C@H]1[C@H](O[C@@H]2[C@@H](OC[C@H]3O[C@@H](O[C@H]4[C@H](O)[C@@H](NC(C)=O)C(O)O[C@@H]4CO)[C@@H](O)[C@@H](O[C@H]4O[C@H](CO)[C@@H](O)[C@H](O)[C@@H]4O[C@@H]4O[C@H](CO)[C@@H](O[C@@H]5O[C@H](CO)[C@H](O)[C@H](O)[C@H]5O)[C@H](O)[C@H]4NC(C)=O)[C@@H]3O)O[C@H](CO)[C@@H](O)[C@@H]2O)O[C@H](CO)[C@@H](O[C@@H]2O[C@H](CO)[C@H](O)[C@H](O)[C@H]2O)[C@@H]1O (stereo partly shown) [drawing 7] | – | – | – | – | – | – | – | – | minimal effective concentration [3]: 175 µg/mL
6 | CC(=O)N[C@H]1[C@H](O[C@@H]2[C@H](O)[C@@H](O)[C@H](O[C@H]3[C@H](O)[C@@H](O)C(O)O[C@@H]3CO)O[C@@H]2CO)O[C@H](CO)[C@@H](O[C@@H]2O[C@H](CO)[C@H](O)[C@H](O)[C@H]2O)[C@@H]1O (stereo partly drawn) [β-Gal-(1-4)-β--GNAc-(1-4)-β-Gal-(1-4)-Glc] | – | – | – | – | – | – | – | – | reduction of the number of adhering bacteria ([4]; oligosaccharide 5 mg/ml, preincubated 30 min at 37° C., then 45 min with cells, vs control without oligosaccharides): ~96%
7 | CC(=O)N[C@H]1C(O)O[C@H](CO)[C@@H](O[C@@H]2O[C@H](CO)[C@H](O)[C@H](O)[C@H]2O)[C@@H]1O (stereo partly drawn) [β-Galp-(1-4)-GNAc] | 300 µg/mL | – | – | – | – | – | – | – | removal of the bacterium from the surface (S. saprophyticus): effective removal of the bacterium from the surface; inhibition at 5000 µg/mL [4]: ~85%
8 | OC[C@H]1O[C@@H](O[C@H]2[C@H](O)[C@@H](O)C(O)O[C@@H]2CO)[C@H](O)[C@@H](O)[C@H]1O (stereo partly drawn) [β-Galp-(1-4)-Glc, reference compound] | > 2500 µg/mL | – | – | – | – | – | – | – | reduction of the number of adhering bacteria (in words) ([4]; oligosaccharide 5 mg/ml, in comparison with the control test without oligosaccharides): did not reduce the number of adhering bacteria
9 | CO[C@@H]1O[C@H](CO)[C@@H](O[C@@H]2O[C@H](CO)[C@H](O)[C@H](O)[C@H]2O)[C@H](O)[C@H]1NC(C)=O [β-Galp-(1-4)-β-GNAcp-(1-0)-CH3] | 250 µg/mL | – | – | – | – | – | – | – | inhibition at 5000 µg/mL [4]: ~95%
10 | Asialofetuin | – | 10% | 15% | 7.0% | 5.0% | 1.5% | 1.0% | inhibited | Minimum inhibitory con. ([1]; Inhibition of haemagglutination, S. saprophyticus Mc 2 and Mc 194, 2 HU bacteria): 125 µg/mL; Minimum inhibitory concentration ([3]; Inhibition of haemagglutination, 3% GRBC, 2-4 HU bacteria or fimbriae, +44° C., 4 hours): 150 µg/mL
